# How the values were obtained:
# [1] = system: BHK 21 Syrian hamster fibroblast line; test: Cell growth of BHK cultures (DNA + RNA content), Cr compounds added directly to medium; format: cell-based; conditions: 48 h in MEM
# Description: (§1) Cell growth and labelling.-The reduction in cell growth, based on the nucleic acid content (DNA + RNA) of treated cultures, and the inhibition of DNA, RNA and protein syn- thesis, based on the incorporation of labelled precursors, were determined, to evaluate the cytotoxic effects of Cr compounds in BHK cell cultures. […] Three to four thousand cells were then examined for each dose level and each time interval, and the mitotic index (the ratio of all mitoses to the total number of cells) and the frequencies of each mitotic phase (the ratios of cells in each phase to total mitoses) were determined. […] Chromium compounds and cell treatments.- The tested compounds of Cr(VI) and Cr(III) and their physico-chemical properties are listed in Table I. In many experiments in which most of them were highly insoluble or only partially soluble (see Tables I, IV, V), Cr compounds were directly suspended in the growth medium used for treatments. In the experiments on the induction of chromosome aberrations and SCE in CHO cells, almost complete solubilization was obtained in N HCI for Cr(III) compounds and 0-5N NaOH for Cr(VI) compounds, after which they were diluted with MEM to the final concentrations specified in Table IX. […] The cytotoxic and clastogenic effects were usually deter- mined just at the end of Cr treatments, but sometimes the treated cells were washed with HBSS and incubated with normal growth medium, so that the effects of Cr were deter- mined at different times after the end of treatment (see Fig. 3 and Table VII).
# [2] = system: BHK 21 Syrian hamster fibroblast line; test: DNA, RNA and protein syntheses in BHK cells, Cr compounds added directly to medium; format: cell-based; conditions: 48 h in MEM
# Description: (§2) Cell growth and labelling.-The reduction in cell growth, based on the nucleic acid content (DNA + RNA) of treated cultures, and the inhibition of DNA, RNA and protein syn- thesis, based on the incorporation of labelled precursors, were determined, to evaluate the cytotoxic effects of Cr compounds in BHK cell cultures. […] Three to four thousand cells were then examined for each dose level and each time interval, and the mitotic index (the ratio of all mitoses to the total number of cells) and the frequencies of each mitotic phase (the ratios of cells in each phase to total mitoses) were determined. […] Chromium compounds and cell treatments.- The tested compounds of Cr(VI) and Cr(III) and their physico-chemical properties are listed in Table I. In many experiments in which most of them were highly insoluble or only partially soluble (see Tables I, IV, V), Cr compounds were directly suspended in the growth medium used for treatments. […] The cytotoxic and clastogenic effects were usually deter- mined just at the end of Cr treatments, but sometimes the treated cells were washed with HBSS and incubated with normal growth medium, so that the effects of Cr were deter- mined at different times after the end of treatment (see Fig. 3 and Table VII).
# [3] = system: BHK 21 Syrian hamster fibroblast line; test: DNA, RNA and protein syntheses in BHK monolayers exposed to filtered medium preincubated with Cr compounds; format: cell-based;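 also: DNA, RNA and protein synthesis in BHK cultures assessed by incorporation of labelled precursors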
# Description: as §2
# [4] = system: HEp-2 human epithelial-like line; conditions: 2 h exposure to medium preincubated 2 days with 0.5 mg/ml in presence of BHK cells
# Description: as §2
# [5] = system: CHO Chinese hamster fibroblast line; test: Cell growth of CHO cultures (DNA + RNA content); format: cell-based; conditions: 32 h in MEM
# Description: as §2
# [6] = Solubility of chromium compounds (Table I)
# Description: as §1
# rats = conditions: s.c. in rats; 0% in the controls; ref Maltoni (1976); cited from earlier work
# Salmonella = conditions: ref Petrilli & De Flora (1978a,b) and De Flora (1981), cited from earlier work; for Mutagenicity in the plate test: dissolved in 0.5N NaOH
# [7] = system: bacteria and mammalian cells in culture; conditions: 1979, De Flora, 1981, cited from earlier work
# [8] = preincubated 48 h with 0.5 mg/ml, cells exposed 24 h
# [9] = 0.5 mg/ml, preincubation 2 h, monolayers exposed 24 h
# [10] = 0.5 mg/ml, preincubation 1 d, monolayers exposed 24 h
# [11] = 0.5 mg/ml, preincubation 2 d, monolayers exposed 24 h
# [12] = 0.5 mg/ml, preincubation 3 d, monolayers exposed 24 h
# [13] = 0.5 mg/ml, preincubation 6 d, monolayers exposed 24 h
# [14] = preincubated 48 h with 0.15/0.05 mg/ml (one value for both), cells exposed 24 h
molecule,measurement,setting,value
[Cl][Cr]([Cl])[Cl] [Chromium chloride],Cell growth,[1]; 0.5 mg/ml,100 % of controls
same,DNA synthesis,[2]; 0.5 mg/ml,100 % of controls
same,Protein synthesis,[2]; 0.5 mg/ml,100 % of controls
same,RNA synthesis,[2]; 0.5 mg/ml,100 % of controls
same,"DNA synthesis, preinc. in MEM",[3]; [8],100 % of controls
same,"DNA synthesis, preinc. in MEM+BHK",[3]; [8],100 % of controls
same,"Protein synthesis, preinc. in MEM",[3]; [8],100 % of controls
same,"Protein synthesis, preinc. in MEM+BHK",[3]; [8],100 % of controls
same,"RNA synthesis, preinc. in MEM",[3]; [8],100 % of controls
same,"RNA synthesis, preinc. in MEM+BHK",[3]; [8],100 % of controls
same,Mitotic block (% increase of abnormal metaphases 2-4 h after treatment),[4],+ (+ (<50%))
same,"Mitotic inhibition, early (% reduction of normal prophases at the end of treatment)",[4],++ (+ + (30-70%))
same,"Mitotic inhibition, late (% reduction of normal prophases 24 h after treatment)",[4],+ (+ (< 30%))
same,Cell growth,[5]; 50 µg/ml,95 % control
same,Solubility in water,[6],High
"[O]=[Cr](=[O])([O-])[O-].[O]=[Pb].[Pb+2] [Chromium orange, Basic lead chromate]",Frequency of sarcomas at the site of injection,rats,65-90%
same,Cell growth,[1]; 0.05 mg/ml,72 % of controls
same,Cell growth,[1]; 0.15 mg/ml,41 % of controls
same,Cell growth,[1]; 0.5 mg/ml,0 % of controls
same,DNA synthesis,[2]; 0.05 mg/ml,43 % of controls
same,Protein synthesis,[2]; 0.05 mg/ml,92 % of controls
same,RNA synthesis,[2]; 0.05 mg/ml,84 % of controls
same,DNA synthesis,[2]; 0.15 mg/ml,11 % of controls
same,Protein synthesis,[2]; 0.15 mg/ml,75 % of controls
same,RNA synthesis,[2]; 0.15 mg/ml,53 % of controls
same,DNA synthesis,[2]; 0.5 mg/ml,0 % of controls
same,Protein synthesis,[2]; 0.5 mg/ml,0 % of controls
same,RNA synthesis,[2]; 0.5 mg/ml,0 % of controls
same,"DNA synthesis, preinc. in MEM",[3]; [9],100 % of controls
same,"DNA synthesis, preinc. in MEM+BHK",[3]; [9],100 % of controls
same,"Protein synthesis, preinc. in MEM",[3]; [9],100 % of controls
same,"Protein synthesis, preinc. in MEM+BHK",[3]; [9],100 % of controls
same,"RNA synthesis, preinc. in MEM",[3]; [9],100 % of controls
same,"RNA synthesis, preinc. in MEM+BHK",[3]; [9],100 % of controls
same,"DNA synthesis, preinc. in MEM",[3]; [10],84 % of controls
same,"DNA synthesis, preinc. in MEM+BHK",[3]; [10],95 % of controls
same,"Protein synthesis, preinc. in MEM",[3]; [10],100 % of controls
same,"Protein synthesis, preinc. in MEM+BHK",[3]; [10],100 % of controls
same,"RNA synthesis, preinc. in MEM",[3]; [10],100 % of controls
same,"RNA synthesis, preinc. in MEM+BHK",[3]; [10],100 % of controls
same,"DNA synthesis, preinc. in MEM",[3]; [11],54 % of controls
same,"DNA synthesis, preinc. in MEM+BHK",[3]; [11],86 % of controls
same,"Protein synthesis, preinc. in MEM",[3]; [11],92 % of controls
same,"Protein synthesis, preinc. in MEM+BHK",[3]; [11],100 % of controls
same,"RNA synthesis, preinc. in MEM",[3]; [11],85 % of controls
same,"RNA synthesis, preinc. in MEM+BHK",[3]; [11],96 % of controls
same,"DNA synthesis, preinc. in MEM",[3]; [12],47 % of controls
same,"DNA synthesis, preinc. in MEM+BHK",[3]; [12],78 % of controls
same,"Protein synthesis, preinc. in MEM",[3]; [12],100 % of controls
same,"Protein synthesis, preinc. in MEM+BHK",[3]; [12],100 % of controls
same,"RNA synthesis, preinc. in MEM",[3]; [12],81 % of controls
same,"RNA synthesis, preinc. in MEM+BHK",[3]; [12],100 % of controls
same,"DNA synthesis, preinc. in MEM",[3]; [13],21 % of controls
same,"DNA synthesis, preinc. in MEM+BHK",[3]; [13],52 % of controls
same,"Protein synthesis, preinc. in MEM",[3]; [13],78 % of controls
same,"Protein synthesis, preinc. in MEM+BHK",[3]; [13],92 % of controls
same,"RNA synthesis, preinc. in MEM",[3]; [13],66 % of controls
same,"RNA synthesis, preinc. in MEM+BHK",[3]; [13],72 % of controls
same,"DNA synthesis, preinc. in MEM",[3]; [8],62 % of controls
same,"DNA synthesis, preinc. in MEM+BHK",[3]; [8],100 % of controls
same,"Protein synthesis, preinc. in MEM",[3]; [8],100 % of controls
same,"Protein synthesis, preinc. in MEM+BHK",[3]; [8],100 % of controls
same,"RNA synthesis, preinc. in MEM",[3]; [8],93 % of controls
same,"RNA synthesis, preinc. in MEM+BHK",[3]; [8],100 % of controls
same,"DNA synthesis, preinc. in MEM",[3]; [14],100 % of controls
same,"DNA synthesis, preinc. in MEM+BHK",[3]; [14],100 % of controls
same,"Protein synthesis, preinc. in MEM",[3]; [14],100 % of controls
same,"Protein synthesis, preinc. in MEM+BHK",[3]; [14],100 % of controls
same,"RNA synthesis, preinc. in MEM",[3]; [14],100 % of controls
same,"RNA synthesis, preinc. in MEM+BHK",[3]; [14],100 % of controls
same,Mitotic block (% increase of abnormal metaphases 2-4 h after treatment),[4],++ (+ + (50-100%))
same,"Mitotic inhibition, early (% reduction of normal prophases at the end of treatment)",[4],++ (+ + (30-70%))
same,"Mitotic inhibition, late (% reduction of normal prophases 24 h after treatment)",[4],+++ (+ + + (> 70%))
same,Cell growth,[5]; 5 µg/ml,100 % control
same,Cell growth,[5]; 25 µg/ml,93 % control
same,Cell growth,[5]; 150 µg/ml,56 % control
same,Mutagenicity in the plate test,Salmonella,positive
same,Mutagenicity in the spot test,Salmonella,mutagens
same,Solubility in water,[6],Very low
O=S(=O)([O-])[O-].O=S(=O)([O-])[O-].O=S(=O)([O-])[O-].[Cr+3].[Cr+3] [Chromium sulphate],Cell growth,[1]; 0.5 mg/ml,68 % of controls
same,DNA synthesis,[2]; 0.5 mg/ml,45 % of controls
same,Protein synthesis,[2]; 0.5 mg/ml,69 % of controls
same,RNA synthesis,[2]; 0.5 mg/ml,55 % of controls
same,"DNA synthesis, preinc. in MEM",[3]; [8],82 % of controls
same,"DNA synthesis, preinc. in MEM+BHK",[3]; [8],100 % of controls
same,"Protein synthesis, preinc. in MEM",[3]; [8],100 % of controls
same,"Protein synthesis, preinc. in MEM+BHK",[3]; [8],100 % of controls
same,"RNA synthesis, preinc. in MEM",[3]; [8],87 % of controls
same,"RNA synthesis, preinc. in MEM+BHK",[3]; [8],100 % of controls
same,Mitotic block (% increase of abnormal metaphases 2-4 h after treatment),[4],+ (+ (<50%))
same,"Mitotic inhibition, early (% reduction of normal prophases at the end of treatment)",[4],+ (+ (< 30%))
same,"Mitotic inhibition, late (% reduction of normal prophases 24 h after treatment)",[4],+ (+ (< 30%))
same,Cell growth,[5]; 5 µg/ml,100 % control
same,Cell growth,[5]; 25 µg/ml,100 % control
same,Cell growth,[5]; 150 µg/ml,93 % control
[O]=[Cr](=[O])([O-])[O-].[Pb+2] [lead chromate],Mutagenicity for bacteria and mammalian cells in culture,"[7]; fine suspension in water, ref Newbold et al.",inactive as a mutagen
same,Point mutations in bacteria,"[7]; solubilized in acids and alkalis, ref Nestmann et al.",induce point mutations
same,Mutagenicity in the plate test,Salmonella,positive
Chromium sulphate [Chromium alum],Frequency of sarcomas at the site of injection,rats,20-25%
same,Cell growth,[1]; 0.5 mg/ml,88 % of controls
same,DNA synthesis,[2]; 0.5 mg/ml,66 % of controls
same,Protein synthesis,[2]; 0.5 mg/ml,96 % of controls
same,RNA synthesis,[2]; 0.5 mg/ml,89 % of controls
same,"DNA synthesis, preinc. in MEM",[3]; [8],92 % of controls
same,"DNA synthesis, preinc. in MEM+BHK",[3]; [8],100 % of controls
same,"Protein synthesis, preinc. in MEM",[3]; [8],100 % of controls
same,"Protein synthesis, preinc. in MEM+BHK",[3]; [8],100 % of controls
same,"RNA synthesis, preinc. in MEM",[3]; [8],100 % of controls
same,"RNA synthesis, preinc. in MEM+BHK",[3]; [8],100 % of controls
same,Mitotic block (% increase of abnormal metaphases 2-4 h after treatment),[4],+ (+ (<50%))
same,"Mitotic inhibition, early (% reduction of normal prophases at the end of treatment)",[4],_
same,"Mitotic inhibition, late (% reduction of normal prophases 24 h after treatment)",[4],+ (+ (< 30%))
same,Cell growth,[5]; 5 µg/ml,100 % control
same,Cell growth,[5]; 25 µg/ml,100 % control
same,Cell growth,[5]; 150 µg/ml,100 % control

# From PMC2010749, “Cytotoxic and clastogenic effects of soluble and insoluble compounds containing hexavalent and trivalent chromium” (British Journal of Cancer, 1981)
